Measurements published in patent US11279681B2, “3-alkyl bicyclic [4,5,0] hydroxamic acids as HDAC inhibitors” (Valo Health, Inc., priority 2015, dated 2022).

Molecular target: T1, HDAC6 (Homo sapiens, UniProt Q9UBN7)
T1 sequence (Q9UBN7 1-1215): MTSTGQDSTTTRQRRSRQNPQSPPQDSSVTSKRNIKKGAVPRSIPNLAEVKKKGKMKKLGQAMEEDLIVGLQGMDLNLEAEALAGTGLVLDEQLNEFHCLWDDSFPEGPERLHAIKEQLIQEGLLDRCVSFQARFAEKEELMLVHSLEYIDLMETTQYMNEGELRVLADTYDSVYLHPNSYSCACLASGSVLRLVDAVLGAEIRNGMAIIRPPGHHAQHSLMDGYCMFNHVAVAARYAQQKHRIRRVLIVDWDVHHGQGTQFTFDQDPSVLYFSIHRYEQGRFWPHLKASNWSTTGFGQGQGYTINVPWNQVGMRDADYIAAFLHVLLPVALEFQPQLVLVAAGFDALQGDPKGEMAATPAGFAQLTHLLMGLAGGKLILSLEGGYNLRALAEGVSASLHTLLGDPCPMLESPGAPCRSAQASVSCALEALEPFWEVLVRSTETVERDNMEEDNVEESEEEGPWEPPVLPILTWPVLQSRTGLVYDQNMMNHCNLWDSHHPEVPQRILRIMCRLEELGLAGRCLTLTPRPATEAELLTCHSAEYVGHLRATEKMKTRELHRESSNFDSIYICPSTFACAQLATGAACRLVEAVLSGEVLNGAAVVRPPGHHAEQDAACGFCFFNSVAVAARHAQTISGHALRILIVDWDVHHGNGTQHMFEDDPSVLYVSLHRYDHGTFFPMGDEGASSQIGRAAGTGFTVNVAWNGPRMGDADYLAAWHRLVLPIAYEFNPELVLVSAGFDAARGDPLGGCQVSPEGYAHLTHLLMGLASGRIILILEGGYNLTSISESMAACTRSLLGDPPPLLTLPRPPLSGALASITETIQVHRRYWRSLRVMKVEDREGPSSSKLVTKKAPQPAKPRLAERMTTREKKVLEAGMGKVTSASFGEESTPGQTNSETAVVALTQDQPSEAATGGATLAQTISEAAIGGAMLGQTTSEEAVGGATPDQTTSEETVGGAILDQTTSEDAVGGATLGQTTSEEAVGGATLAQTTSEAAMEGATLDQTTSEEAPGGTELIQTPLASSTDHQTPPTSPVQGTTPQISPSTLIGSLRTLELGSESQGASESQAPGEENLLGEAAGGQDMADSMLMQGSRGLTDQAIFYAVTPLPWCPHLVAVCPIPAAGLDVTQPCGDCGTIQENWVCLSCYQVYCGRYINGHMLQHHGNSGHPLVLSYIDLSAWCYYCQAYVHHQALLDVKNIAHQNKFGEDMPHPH
Assay: In vitro histone deacetylase assay: enzymatic HDAC6 electrophoretic mobility shift assay
Format: biochemical
Conditions: full length human recombinant HDAC6, 1 nM enzyme, 2 μM peptide substrate RHKK(Ac)-NH2, 25° C.; read-out: Inhibitory Concentration (IC50) Values for Representative Compounds against HDAC6, Activity Range
Protocol: The enzymatic HDAC6 assay was performed using electrophoretic mobility shift assay. […] The enzymatic reactions were assembled in 384 well plates in a total volume of 25 μL in a reaction buffer composing: 100 mM HEPES, pH7.5, 25 mM KCl, 0.1% bovine serum albumin, 0.01% Triton X-100, 1% DMSO (from compounds) 2 μM of the fluorescently labeled peptide substrate and enzyme. The enzyme was added at a final concentration of 1 nM. The peptide substrate RHKK(Ac)-NH2 was used. The compounds were tested at 12 concentrations spaced by 3× dilution intervals. Negative control samples (0%-inhibition in the absence of inhibitor) and positive control samples (100%-inhibition) were assembled in replicates of four in each assay plate. The reactions were incubated at 25° C. and quenched by the addition of 45 μL of termination buffer (100 mM HEPES, pH 7.5, 0.01% Triton X-100, 0.05% SDS).
The terminated assay plates were analyzed on LabChip® 3000 microfluidic electrophoresis instrument (Perkin Elmer/Caliper Life Sciences). The fluorescence intensity of the electrophoretically separated de-acetylated product and substrate peptide was measured. Activity in each sample was determined as the product to sum ratio (PSR): P/(S+P), where P is the peak height of the product peptide and S is the peak height of the substrate peptide. Percent inhibition (Pinh) is determined using the following equation:
Pinh=(PSR0%−PSRinh)/(PSR0%−PSR100%)*100, where PSRinh is the product sum ratio in the presence of inhibitor, PSR0% is the average product sum ration in the absence of inhibitor and PSR100% is the average product sum ratio in 100%-inhibition control samples. The IC50 values of inhibitors were determined by fitting the %-inhibition curves with 4 parameter dose-response model using XLfit 4 software.

Row | SMILES | IC50 [µM]
1 | O=C(NO)c1ccc2c(c1)S(=O)(=O)N(Cc1ccccc1)CCO2 | 0.1 to 0.5
2 | O=C(NO)c1ccc2c(c1)OCCN(Cc1ccccc1)S2(=O)=O | > 0.5
3 | O=C(NO)c1ccc2c(c1)OCCN(c1nc3ccccc3[nH]1)C2 | ≤ 0.1
4 | O=C(NO)c1ccc2c(c1)CN(c1nc3ccccc3[nH]1)CCO2 | 0.1 to 0.5
5 | O=C1CN(Cc2nc3ccccc3[nH]2)Cc2cc(C(=O)NO)ccc2N1 | ≤ 0.1
6 | O=C1CN(Cc2nc3ccccc3[nH]2)Cc2ccc(C(=O)NO)cc2N1 | 0.1 to 0.5
7 | O=C(NO)c1ccc2c(c1)CN(Cc1nc3ccccc3[nH]1)CCO2 | > 0.5
8 | O=C(NO)c1ccc2c(c1)OCCN(Cc1nc3ccccc3[nH]1)C2 | ≤ 0.1
9 | O=C(NO)c1ccc2c(c1)OCCN(c1nc3ccccc3s1)C2 | 0.1 to 0.5
10 | O=C(NO)c1ccc2c(c1)OCCN(c1ccc(Cl)c(Cl)c1)C2 | 0.1 to 0.5
11 | N#Cc1ccc(N2CCOc3cc(C(=O)NO)ccc3C2)cc1C(F)(F)F | 0.1 to 0.5
12 | CC(=O)N1CCCC(CN2CC(=O)Nc3ccc(C(=O)NO)cc3C2)C1 (centres unmarked) | > 0.5
13 | O=C1CN(Cc2coc(-c3cccc(F)c3)n2)Cc2cc(C(=O)NO)ccc2N1 | ≤ 0.1
14 | O=C1CN(Cc2ccccc2Cl)Cc2cc(C(=O)NO)ccc2N1 | 0.1 to 0.5
15 | COc1ccc(CN2CC(=O)Nc3ccc(C(=O)NO)cc3C2)c(F)c1 | ≤ 0.1
16 | O=C1CN(Cc2cccc3c2OC(F)(F)O3)Cc2cc(C(=O)NO)ccc2N1 | ≤ 0.1
17 | O=C1CN(Cc2cc(F)ccc2F)Cc2cc(C(=O)NO)ccc2N1 | 0.1 to 0.5
18 | CN(C)Cc1cccc(CN2CC(=O)Nc3ccc(C(=O)NO)cc3C2)c1 | > 0.5
19 | O=C1CN(Cc2cccc(Cl)c2)Cc2cc(C(=O)NO)ccc2N1 | 0.1 to 0.5
20 | O=C1CN(Cc2cc(Cl)cc(Cl)c2)Cc2cc(C(=O)NO)ccc2N1 | ≤ 0.1
21 | O=C1CN(Cc2cc(F)cc(F)c2)Cc2cc(C(=O)NO)ccc2N1 | 0.1 to 0.5
22 | O=C1CN(Cc2ccc(Cl)cc2)Cc2cc(C(=O)NO)ccc2N1 | ≤ 0.1
23 | N#Cc1ccc(CN2CC(=O)Nc3ccc(C(=O)NO)cc3C2)cc1 | 0.1 to 0.5
24 | O=C(NO)c1ccc2c(c1)OCCN(CC1CCCCC1)C2 | 0.1 to 0.5
25 | O=C1CN(CC2CC2)Cc2cc(C(=O)NO)ccc2N1 | 0.1 to 0.5
26 | CC(c1ccccc1)N1CC(=O)Nc2ccc(C(=O)NO)cc2C1 (centres unmarked) | ≤ 0.1
27 | O=C1CN(Cc2nccs2)Cc2cc(C(=O)NO)ccc2N1 | > 0.5

Row | SMILES | IC50 [µM]
28 | O=C1CN(Cc2ccccc2OC(F)(F)F)Cc2cc(C(=O)NO)ccc2N1 | ≤ 0.1
29 | O=C1CN(Cc2cccc(OC(F)(F)F)c2)Cc2cc(C(=O)NO)ccc2N1 | 0.1 to 0.5
30 | O=C1CN(Cc2cccc(Oc3ccccc3)c2)Cc2cc(C(=O)NO)ccc2N1 | 0.1 to 0.5
31 | O=C1CN(Cc2ccc(-n3cccn3)cc2)Cc2cc(C(=O)NO)ccc2N1 | ≤ 0.1
32 | CC(C)c1ccc(CN2CC(=O)Nc3ccc(C(=O)NO)cc3C2)cc1 | ≤ 0.1
33 | CC(C)Oc1ccc(CN2CC(=O)Nc3ccc(C(=O)NO)cc3C2)cc1 | ≤ 0.1
34 | O=C1CN(Cc2ccc(-c3ccccn3)cc2)Cc2cc(C(=O)NO)ccc2N1 | ≤ 0.1
35 | O=C1CN(Cc2ccc(OC(F)(F)F)cc2)Cc2cc(C(=O)NO)ccc2N1 | 0.1 to 0.5
36 | O=C1CN(Cc2ccc(Oc3ccccc3)cc2)Cc2cc(C(=O)NO)ccc2N1 | ≤ 0.1
37 | CC(C)c1ccc(CN2CC(=O)Nc3ccc(C(=O)NO)cc3C2)nc1 | 0.1 to 0.5
38 | O=C1CN(CC2CCOC2)Cc2cc(C(=O)NO)ccc2N1 (centres unmarked) | > 0.5
39 | O=C1CN(Cc2ccccn2)Cc2cc(C(=O)NO)ccc2N1 | > 0.5
40 | O=C1CN(Cc2cccnc2)Cc2cc(C(=O)NO)ccc2N1 | 0.1 to 0.5
41 | O=C1CN(Cc2ccncc2)Cc2cc(C(=O)NO)ccc2N1 | 0.1 to 0.5
42 | O=C1CN(Cc2cncnc2)Cc2cc(C(=O)NO)ccc2N1 | > 0.5
43 | COCCn1c(N2CCOc3ccc(C(=O)NO)cc3C2)nc2ccccc21 | 0.1 to 0.5
44 | COCCn1c(N2CCOc3cc(C(=O)NO)ccc3C2)nc2ccccc21 | ≤ 0.1
45 | COc1ccc(CCN2CC(=O)Nc3ccc(C(=O)NO)cc3C2)cc1 | 0.1 to 0.5
46 | COc1ccc(CCN2CCOc3ccc(C(=O)NO)cc3C2)cc1 | > 0.5
47 | COc1ccc(CCN2CCOc3cc(C(=O)NO)ccc3C2)cc1 | 0.1 to 0.5
48 | COc1ccc(CCN2CCOc3cc(C(=O)NO)ccc3C2=O)cc1 | 0.1 to 0.5
49 | COc1ccc(S(=O)(=O)N2CC(=O)Nc3ccc(C(=O)NO)cc3C2)cc1 | > 0.5
50 | COc1ccc(S(=O)(=O)N2CCOc3cc(C(=O)NO)cnc3C2)cc1 | 0.1 to 0.5
51 | COc1ccc(S(=O)(=O)N2CCOc3nc(C(=O)NO)ccc3C2)cc1 | > 0.5
52 | COc1ccc(S(=O)(=O)N2CCOc3ccc(C(=O)NO)cc3C2)cc1 | 0.1 to 0.5
53 | COc1ccc(S(=O)(=O)N2CCOc3cc(C(=O)NO)ccc3C2)cc1 | 0.1 to 0.5
54 | COc1ccc(CN2CC(=O)N(C)c3ccc(C(=O)NO)cc3C2)cc1 | > 0.5

Row | SMILES | IC50 [µM]
55 | COCCn1c(CN2CCOc3cc(C(=O)NO)ccc3C2)nc2ccccc21 | 0.1 to 0.5
56 | COCCn1c(CN2CCOc3ccc(C(=O)NO)cc3C2)nc2ccccc21 | > 0.5
57 | Cn1ccnc1CN1CC(=O)Nc2ccc(C(=O)NO)cc2C1 | 0.1 to 0.5
58 | COc1ccc(CN2CCN(C)c3ccc(C(=O)NO)cc3C2)cc1 | > 0.5
59 | COc1ccc(CN2CC(=O)Nc3ccc(C(=O)NO)cc3C2)cc1 | 0.1 to 0.5
60 | COc1ccc(CN2CCOc3cc(C(=O)NO)cnc3C2)cc1 | 0.1 to 0.5
61 | COc1ccc(CN2CCOc3nc(C(=O)NO)ccc3C2)cc1 | > 0.5
62 | COc1ccc(CN2CCOc3ccc(C(=O)NO)cc3C2)cc1 | > 0.5
63 | COc1ccc(CN2CCOc3cc(C(=O)NO)ccc3C2)cc1 | 0.1 to 0.5
64 | COc1ccc(CN2CCNc3ccc(C(=O)NO)cc3C2)cc1 | > 0.5
65 | COc1ccc(CN2CCOc3ccc(C(=O)NO)cc3C2=O)cc1 | > 0.5
66 | COc1ccc(CN2CCOc3cc(C(=O)NO)ccc3C2=O)cc1 | 0.1 to 0.5
67 | O=C1CN(Cc2cn3ccccc3n2)Cc2cc(C(=O)NO)ccc2N1 | ≤ 0.1
68 | O=C1CN(Cc2cccc3ccccc23)Cc2cc(C(=O)NO)ccc2N1 | ≤ 0.1
69 | COc1ccc(NC(=O)N2CCOc3ccc(C(=O)NO)cc3C2)cc1 | > 0.5
70 | COc1ccc(NC(=O)N2CCOc3cc(C(=O)NO)cnc3C2)cc1 | ≤ 0.1
71 | COc1ccc(NC(=O)N2CCOc3cc(C(=O)NO)ccc3C2)cc1 | 0.1 to 0.5
72 | C[C@@H]1COc2cc(C(=O)NO)ccc2CN1c1ccccc1 | 0.1 to 0.5
73 | COc1ccc(S(=O)(=O)N2Cc3ccc(C(=O)NO)cc3OC[C@H]2C)cc1 | > 0.5
74 | COc1ccc(CN2Cc3ccc(C(=O)NO)cc3OC[C@H]2C)cc1 | ≤ 0.1
75 | COc1ccc(NC(=O)N2Cc3ccc(C(=O)NO)cc3OC[C@H]2C)cc1 | 0.1 to 0.5
76 | C[C@H]1COc2cc(C(=O)NO)ccc2CN1c1ccccc1 | ≤ 0.1
77 | COc1ccc(S(=O)(=O)N2Cc3ccc(C(=O)NO)cc3OC[C@@H]2C)cc1 | 0.1 to 0.5
78 | COc1ccc(CN2Cc3ccc(C(=O)NO)cc3OC[C@@H]2C)cc1 | ≤ 0.1
79 | COc1ccc(NC(=O)N2Cc3ccc(C(=O)NO)cc3OC[C@@H]2C)cc1 | ≤ 0.1
80 | COc1ccc(CN2CCOc3ccc(C(=O)NO)cc3C2C)cc1 (centres unmarked) | > 0.5
